Data: patent US10435361B2, “Kinase inhibitors” (Topivert Pharma Limited, priority 2013, dated 2019)

Legend:
PBMCs [1] = test: IL-2 and IFN gamma release in CD3/CD28 stimulated PBMC cells; format: cell-based; details: Homo sapiens, assay (c)
In short: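 Healthy-donor PBMCs, density-gradient isolated, stimulated on plates pre-coated with anti-CD3 (0.3 μg/mL) and anti-CD28 (3 μg/mL) antibodies, with compound, for 3 days under standard culture conditions. IC50 derived from the dose-response curve.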

SCID animals = test: Adoptive transfer in mice (CD45RBhigh cells into SCID animals); format: in vivo; details: for % Inhibition: Table 6a, inhibition of the induction window between naïve and vehicle animals; for levels of pro-inflammatory cytokines in samples of colon tissue: adoptive transfer model
Method: On Study day 0, female Balb/C mice are terminated and spleens obtained for CD45RB^high cell isolation (Using SCID IBD cell Separation protocol). Approximately 4×10^5 cells/mL CD45RB^high cells are then injected intraperitoneally (100 μL/mouse) into female SCID animals. On study day 14, mice are weighed and randomized into treatment groups based on body weight. On Day 14, compounds are administered BID, via oral gavage, in a peanut oil vehicle at the dose levels outlined below in Tables 6a and 6b and a dose volume of 5 mL/kg. Treatment continues until study day 42, at which point the animals are necropsied 4 hours after the morning administration. The colon length and weight are recorded and used as a secondary endpoint in the study as a measurement of colon oedema. The colon is then divided into six cross-sections, four of which are used for histopathology scoring (primary endpoint) and two are homogenised for cytokine analysis. Data shown is the % inhibition of the induction window between naïve animals and vehicle animals, where higher inhibition implies closer to the non-diseased, naïve, phenotype.

BDF1 mice = test: TNBS-induced colitis in mice; format: in vivo; details: conducted over 2 days; vehicle corn oil/transcutol/maisine/cremophor ELP
Method: Non-fasted, 10-12 week old, male BDF1 mice are dosed by oral gavage twice daily with either vehicle (5 mL/kg), reference item (Budesonide 2.5 mg/kg) or test compound (1 or 5 mg/kg) one day before (Day −1) stimulation of the inflammatory response by treatment with 2,4,6-trinitrobenzenesulphonic acid (TNBS) (15 mg/mL in 50% ethanol/50% saline). On Day 0 of the study TNBS (200 μL) is administered intra-colonically via a plastic catheter with BID dosing of the vehicle, reference or test compound continuing for 2 or 4 days. During the study, animals are weighed every day and stool observations are made and recorded as a score, based on stool consistency. At the time of sacrifice on Day 2 (or Day 4), the large intestine is removed and the length and weight recorded. Sections of the colon are taken for histopathology scoring to determine disease severity.

[2] = test system: Salmonella typhimurium TA100; test: Bacterial reverse mutation screen, strain TA100; format: cell-based; details: presence or absence of S-9 mix; up to 1000 μg/plate analysable
Method: (§1) Studies were conducted by Sequani (Ledbury, Herefordshire, UK) to assess compounds of the invention for their ability to induce mutations in two histidine dependent auxotrophic mutants of Salmonella typhimurium, strains TA98 and TA100 in vitro.
(§2) The mutation screen was conducted using the plate incorporation method and was performed in both the presence and absence of S-9 mix (a liver post-mitochondrial fraction derived from the livers of Aroclor 1254 treated rats). The bacteria were exposed to test compounds dissolved in dimethylsulphoxide, which solvent was also used as the negative control. The dose levels used were 0.32, 1.6, 8, 40, 200, 1000 or 5000 μg/plate.
(§3) Precipitation was also noted in both strains at 1000 μg/plate in the presence and absence of S-9 mix.

[3] = Hydrolytic stability study (DMSO/water 3:1, 60° C.); format: physicochemical
Method: Chemical stability of compounds of the invention was assessed in a mixture of DMSO and water (3:1) at a test compound concentration of 1 mg/mL
Agilent, Waters X-Select C18, 2.5 μm, 4.6×30 mm column, 4 min method, 5-95%
MeCN/water (0.1% formic acid).
Column Oven Temperature 40° C.
Sample Preparation • A 1.0 mg sample of test compound was dissolved in 750 μL of DMSO. Water (250 μL) was added slowly, ensuring no precipitation occurred.
Recording Stability • A 50 μL aliquot of the test solution was removed and analysed in duplicate by 5 μL HPLC injections. The peak area for the test compound was recorded following manual integration of the corresponding UV trace. • The test solution was heated to 60° C., with stirring, and 50 μL aliquots removed for HPLC analysis at 5 and 24 h timepoints.

[4] = test system: Salmonella typhimurium TA98; test: Bacterial reverse mutation screen, strain TA98; format: cell-based; details: presence or absence of S-9 mix; up to 1000 μg/plate analysable
Method: as §1, §2, §3

PBMCs [5] = test: LPS-induced TNFα/IL-8 release in PBMC cells; format: cell-based; details: Homo sapiens, assay (b)
In short: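 Healthy-donor PBMCs isolated by density gradient were pretreated with compound for 2 h, then stimulated with 1 ng/mL LPS (E. coli 0111:B4) for 24 h at 37° C., 5% CO2. IL-8 and TNFα in supernatants measured by sandwich ELISA.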

HT29 cells = test: IL-1β-induced IL-8 release in HT29 cells; format: cell-based; details: Homo sapiens, HT-29, assay (d), read-out: IC50 Values for Inhibition of Cytokine Release HT29 cells IL-8
Method: HT29 cells, a human colon adenocarcinoma cell line, are plated in a 96 well plate (24 hr) and pre-treated with compounds at the desired concentration for 2 hours before addition of 5 ng/mL of IL-1β (Abcam) for 24 hours. Supernatants are harvested for IL-8 quantification by Sandwich ELISA (Duo-set, R&D System). The IC50 is determined from the dose response curve.

[6] = read-out: IC50 Values for Inhibition of Cytokine Release PBMCs IFNγ
[7] = read-out: IC50 Values for Inhibition of Cytokine Release PBMCs IL-2
[8] = read-out: IC50 Values for Inhibition of Cytokine Release PBMCs IL-8

## COCCOCCOCCOc1cc(Nc2nccc(Oc3ccc(NC(=O)Nc4cc(C(C)(C)C)cc(NS(C)(=O)=O)c4OC)c4ccccc34)n2)cc(OC)c1 [Example 4, N-(5-(tert-Butyl)-2-methoxy-3-(3-(4-((2-((3-methoxy-5-(2-(2-(2-methoxyethoxy)ethoxy)-ethoxy)phenyl)amino)pyrimidin-4-yl)oxy)naphthalen-1-yl)ureido)phenyl)methanesulfonamide]
PBMCs [1]; [6]
  IC50: 4.2 nM
PBMCs [1]; [7]
  IC50: 40.5 nM
SCID animals; 0.3 mg/kg BID oral gavage
  % Inhibition: 62%
SCID animals; 1 mg/kg BID oral gavage
  % Inhibition: 110%
SCID animals
  levels of pro-inflammatory cytokines in samples of colon tissue: significantly reduced
BDF1 mice
  activity in TNBS-induced colitis (histopathology analysis): displayed substantial activity
[2]
  increases in revertant colonies, strain TA100: no dose-related or statistically significant increases in revertant colonies
[3]; DMSO/water 3:1, 0 min
  % Parent Remaining: 100%
[4]
  increases in revertant colonies, strain TA98: no dose-related or statistically significant increases in revertant colonies
PBMCs [5]; [8]
  IC50: 1.4 nM
PBMCs [5]; read-out: IC50 Values for Inhibition of Cytokine Release PBMCs TNFα
  IC50: 0.7 nM
HT29 cells
  IC50: 4.9 nM

## C#Cc1cc(Nc2nccc(Oc3ccc(NC(=O)Nc4cc(C(C)(C)C)cc(NS(C)(=O)=O)c4OC)c4ccccc34)n2)cc(C(=O)NCCOCCOCCOC)c1 [Example 16, 3-((4-((4-(3-(5-(tert-Butyl)-2-methoxy-3-(methylsulfonamido)phenyl)ureido)naphthalen-1-yl)oxy)pyrimidin-2-yl)amino)-5-ethynyl-N-(2-(2-(2-methoxyethoxy)ethoxy)ethyl)benzamide]
PBMCs [1]; [6]
  IC50: 7.3 nM
PBMCs [1]; [7]
  IC50: 74 nM
SCID animals
  levels of pro-inflammatory cytokines in samples of colon tissue: significantly reduced
SCID animals; end of the study
  activity in adoptive transfer model (ratios of colon weight to length): displayed significant activity
BDF1 mice
  activity in TNBS-induced colitis (histopathology analysis): displayed substantial activity
[2]
  increases in revertant colonies, strain TA100: no dose-related or statistically significant increases in revertant colonies
[3]; DMSO/water 3:1, 0 min
  % Parent Remaining: 100%
[3]; DMSO/water 3:1, 60° C., 300 min
  % Parent Remaining: 100%
[3]; DMSO/water 3:1, 60° C., 1440 min
  % Parent Remaining: 100%
[4]
  increases in revertant colonies, strain TA98: no dose-related or statistically significant increases in revertant colonies
PBMCs [5]; [8]
  IC50: 1.5 nM
HT29 cells
  IC50: 8 nM

## COc1cc(Nc2cc(Oc3ccc(NC(=O)Nc4cc(C(C)(C)C)cc(NS(C)(=O)=O)c4OC)c4ccccc34)ccn2)cc(C(=O)NCCN2CCOCC2)c1 [Example 27, 3-((4-((4-(3-(5-(tert-Butyl)-2-methoxy-3-(methylsulfonamido)phenyl)ureido)naphthalen-1-yl)oxy)pyridin-2-yl)amino)-5-methoxy-N-(2-morpholinoethyl)benzamide]
PBMCs [1]; [6]
  IC50: 11 nM
PBMCs [1]; [7]
  IC50: 46.3 nM
SCID animals; 3 mg/kg BID oral gavage
  % Inhibition: 99%
SCID animals
  levels of pro-inflammatory cytokines in samples of colon tissue: significantly reduced
BDF1 mice
  activity in TNBS-induced colitis (histopathology analysis): displayed substantial activity
[2]
  increases in revertant colonies, strain TA100: no dose-related or statistically significant increases in revertant colonies
[3]; DMSO/water 3:1, 0 min
  % Parent Remaining: 100%
[4]
  increases in revertant colonies, strain TA98: no dose-related or statistically significant increases in revertant colonies
PBMCs [5]; [8]
  IC50: 1.9 nM
HT29 cells
  IC50: 8.3 nM
